In patent US20150299277A1, “AGENT FOR TREATING OR PREVENTING SYSTEMIC INFLAMMATORY RESPONSE SYNDROME” (THE UNIVERSITY OF TOKYO, priority 2012, published 2015):
Entries after “also recorded” stand apart in the source; their conditions may differ.

How the values were obtained:
histone H2A = biological target: T1, histone H2A (Homo sapiens, UniProt Q7L7L0); assay: ELISA binding assay; conditions: immobilized recombinant histone
T1 construct: purchased NEB
Experimental: (§1) Recombinant human histone (NEB) was adjusted to a concentration of 1 μg/mL in TBS, added to a 96 well ELISA plate, and immobilized at 4° C. overnight. The solution was discarded, a blocking buffer (TBS, 0.1% Triton-X100, 1% BSA) was added, and the plate was incubated at room temperature for 2 hr. The plate was washed four times with a wash buffer (TBS, 0.1% Triton-X100), recombinant PTX3 diluted to various concentrations with the blocking buffer was added to each well, and reacted at room temperature for 1 hr. After washing four times with the wash buffer, HRP-labeled antibody diluted with the blocking buffer was added, and reacted at room temperature for 1 hr. After washing four times with the wash buffer, TMB solution was added to carry out a color development reaction for 30 min, and the absorbance at 450 nm was measured. Assay was performed using all the buffers containing 4 mM CaCl2 or 4 mM EDTA.
(§2) The binding level between immobilized each recombinant histone and a tagged human PTX3 fragment was measured by binding assay (ELISA). For detection, HRP-labeled anti-His (6×His) antibody was used. ELISA was performed with duplicate wells for each point, and means and standard deviations were calculated from three independent experiments.

histone H2B = biological target: T2, histone H2B (Homo sapiens, UniProt Q16778); assay: ELISA binding assay; conditions: immobilized recombinant histone
T2 construct: purchased NEB
Experimental: as §1, §2

Calf Thymus Histones [1] = assay: Aggregation with histone, absorbance at 310 nm; assay type: binding; conditions: mixture with Calf Thymus Histones
Experimental: The lower left figure and the lower right figure show the measurement results of absorbance at 310 nm of a mixture of a wild-type or oligomer formation capacity-deficient mutant of PTX3 N-terminal domain having each concentration and 0.1 mg/mL Calf Thymus Histones at 1:1 vol.
The aggregation activity of PTX3 and other pentraxins to histone was evaluated. Calf Thymus Histones (50 μg/mL) were mixed with a PTX3 fragment or the other pentraxin at each concentration, and the absorbance at the wavelength of 310 nm was measured. Before mixing, samples were dialyzed against 4 mM CaCl2-containing TBS.

histone H4 on HUVEC = assay: Cytotoxic assay: suppression of histone cytotoxicity on HUVEC; assay type: cell-based, human; conditions: 1 hr culture, PI staining, FACS
Experimental: (§3) Normal human umbilical vein endothelial cells (HUVECs) were cultured in EGM2 medium (Clonetics). The cells after culture were washed with PBS, added with Opti-MEM medium containing an product of incubation of activated protein C (APC), PTX3, C reactive protein (CRP) or Serum amyloid P component (SAP) with histone for 1 hr, and the cells were further cultured for 1 hr. Propidium iodide (PI) was added to the medium after culture at a final concentration of 10 μg/mL, and the cells were stained for 10 min. The cells were washed with PBS, detached and analyzed by flow cytometry.
(§4) Using each recombinant histone instead of Calf Thymus Histones, a suppressive effect of full-length PTX3 or the N-terminal domain of PTX3 on histone cytotoxicity was studied in the same manner.
Lastly, capacity of suppressing the cytotoxic activity of histone was confirmed. Since this experiment requires a certain amount of protein and an endotoxin-elimination as treatment, a protein was expressed and purified at a 500 mL culture scale, and subjected to an endotoxin-elimination treatment (FIG. 18). In the case of PTX3 N-terminal domain, about 10 mg was obtained at a 500 mL culture scale, and a loss by the endotoxin-elimination treatment was scarcely observed. […] A capacity of fragment proteins obtained at a 500 mL scale on HUVEC to suppress histone cytotoxicity was studied. […]

[2] = tested on: mouse subjected to cecal ligation and puncture (CLP); assay: Cecal ligation and puncture (CLP) mouse; assay type: in vivo; conditions: 5 mg/kg with gentamicin 5 mg/kg, 4 hr after CLP, versus gentamicin alone
Experimental: For cecal ligation and puncture (CLP) treatment, male C57BL/6 mouse was anesthetized, laparotomy was performed, and cecum was exposed and ligated. A hole is made with an injection needle at the middle between the ligated site and cecum peripheral site, and the abdomen is closed. Four hours from the CLP treatment, the N-terminal domain of PTX3 (5 mg/kg) and gentamicin (5 mg/kg), or gentamicin (5 mg/kg) alone were(was) administered to the mouse.
Mouse was subjected to cecal ligation and puncture (CLP) treatment and, 4 hr later from the treatment, the N-terminal domain of PTX3 (5 mg/kg) and gentamicin (5 mg/kg), or gentamicin (5 mg/kg) alone were(was) administered to the mouse.

histone H4 [3] = biological target: T3, histone H4 (Homo sapiens, UniProt P62805); assay: CD spectrum of histone H4-PTX3 complex
Experimental: The CD spectrum of the histone H4-PTX3 complex was measured. The N-terminal domain of PTX3 (25 μg/mL) and histone H4 (5 μg/mL) were each independently measured, and further, the histone H4-PTX3 mixture was measured (FIG. 6D).

[4] = tested on: each recombinant histone on HUVEC; assay: Cytotoxic assay: suppression of histone cytotoxicity on HUVEC; assay type: cell-based, human; conditions: 1 hr culture, PI staining, FACS
Experimental: as §3, §4

Calf Thymus Histones [5] = assay: Dose-dependent precipitate formation (supernatant after centrifugation); assay type: binding; conditions: PTX3 0, 12.5, 25, 50 μg/mL; histones 50 μg/mL
Experimental: (§5) Full-length PTX3 at each concentration (0, 12.5, 25, 50 μg/mL) was mixed with Calf Thymus Histones (50 μg/mL) or histone H4 (50 μg/mL), and the mixture was centrifuged. The obtained supernatant was subjected to immunoblotting using PPZ-1228 or SYPRO Ruby staining.

histone H4 [6] = biological target: T3, histone H4; assay: as above; assay type: binding; conditions: PTX3 0, 12.5, 25, 50 μg/mL; histone H4 50 μg/mL
Experimental: as §5

histone H4 [7] = biological target: T3, histone H4; assay: PTX3-histone aggregation, UV-visible absorption spectrum (310 nm); assay type: binding; design: purchased NEB; conditions: PTX3 at various concentrations mixed with histone H4
Experimental: 0.1 mg/mL human histone H4 was mixed with equal volume of various concentrations of Myc-tagged full-length PTX3, and UV-visible absorption spectrum was measured. A graph of absorbance at 310 nm is shown at the top.
Full-length PTX3 at each concentration was mixed with 50 μg/mL histone H4, and UV-visible absorption spectrum (wavelength 310 nm) was measured.

| Substance | bindability to histone H2A (binding assay) (histone H2A) | bindability to histone H2B (binding assay) (histone H2B) | aggregation with Calf Thymus Histones, absorbance at 310 nm (Calf Thymus Histones [1]) | aggregation with Calf Thymus Histones, absorbance at 310 nm (Calf Thymus Histones [1]; listed as N-terminal domain) | suppression of toxic activity of histone H4 on HUVEC (histone H4 on HUVEC) | mortality due to the CLP treatment [2] | CD spectrum, mixed with histone H4 (histone H4 [3]; 25 μg/mL with histone H4 5 μg/mL) | CD spectrum, alone (histone H4 [3]; 25 μg/mL, measured independently) | suppression of toxic activity of each recombinant histone on HUVEC [4] | precipitate formation with Calf Thymus Histones (Calf Thymus Histones [5]) | precipitate formation with histone H4 (histone H4 [6]) | aggregation with histone H4, UV-visible absorption spectrum (histone H4 [7]) |
| --- | --- | --- | --- | --- | --- | --- | --- | --- | --- | --- | --- | --- |
| N-terminal domain of PTX3: N-terminal domain human PTX3 (18-178 amino acids, SEQ ID NO: 3), tagged, expressed in CHO cells or Escherichia coli | lower than that of the full-length PTX3 | lower than that of the full-length PTX3 | showed an aggregation activity with histone | an aggregation reaction | suppress; also recorded: suppressed | significantly improved | did not afford a spectrum pattern showing a general secondary structure | a spectrum pattern having α-helix in the secondary structure | – | – | – | – |
| full-length PTX3: full-length human pentraxin 3 (1-381 amino acids, SEQ ID NO: 2), used tag-free or Myc- and His-tagged | – | – | showed an aggregation activity with histone | – | – | – | – | – | suppressed | precipitated as an insoluble product | precipitated as an insoluble product | dose-dependent spectrum |
